Test results published in paper PMC6749524, “Identification of New Antifungal Agents Targeting Chitin Synthesis by a Chemical-Genetic Method” (Molecules, 2019).

Experiments:
[1] = tested on: fks1∆ (fks1::KanMX in BY4741); assay: MIC in compound library screening assay, fks1∆ yeast; type: cell-based, S. cerevisiae
Description: (§1) The compound library is a combination of synthetic compounds from Enamine (Kyiv, Ukraine) and Life Chemicals Inc. (Burlington, ON, Canada) and natural products from the Institute of Medicinal Biotechnology. We used WT, chs3∆, and fks1∆ yeast strains to screen new antifungal agents. The screening assays were performed in 96-well plates in a final volume of 200 μL. Fresh yeast cells (OD600 = 0.8) were diluted to 10^5 CFU/mL in YPD medium. We added 198 μL of diluted culture and 2 μL of compounds into each well, and the final concentration of compounds was 100 μg/mL with 1% DMSO. The yeast cells were incubated at 30 °C for 24 hours to assess the growth. For the compounds that inhibited the growth of all three yeast strains, they were serially diluted to determine the minimal inhibit concentration (MIC) with the same method. MIC endpoints were defined as the lowest concentration of drugs that cause a 90% decrease in growth compared to the drug-free control (MIC90).

[2] = tested on: C. albicans; assay: MIC of CFW in the presence of compounds, checkerboard assay; type: cell-based, Candida albicans
Description: (§2) Fresh cell cultures of WT S. cerevisiae and C. albicans ATCC10231 (OD600 = 0.8) were diluted to 10^4 CFU/mL in YPD medium. The in vitro synergistic and antagonistic effects of compounds were determined using checkerboard assay. MIC endpoints were defined as the lowest concentration of drugs, causing 80% decrease in viability compared to the drug-free control (MIC80). The calculation and interpretation of the fractional inhibitory concentration index (FICI) were carried out by referring to the document standards. FICI = (MIC of drug A in combination) / (MIC of drug A alone) + (MIC of drug B in combination) / (MIC of drug B alone). FIC ≤0.5 was considered as a synergistic effect, and >2 was considered as antagonism.

[3] = tested on: C. albicans ATCC10231; assay: Checkerboard assay, synergy with caspofungin; type: cell-based; conditions: Candida albicans; for MIC of Caspofungin Combination: MIC of caspofungin in combination with the named compound; for MIC Combination: MIC of the compound in combination with caspofungin
Description: as §2

[4] = tested on: WT S. cerevisiae; assay: Checkerboard assay, synergy with caspofungin; type: cell-based; conditions: S. cerevisiae, MIC80; for MIC of Caspofungin Combination: MIC of caspofungin in combination with the named compound; for MIC Combination: MIC of the compound in combination with caspofungin
Description: as §2

[5] = tested on: chs3∆ (chs3::KanMX in BY4741); assay: MIC in compound library screening assay, chs3∆ yeast; type: cell-based, S. cerevisiae
Description: as §1

[6] = tested on: budding yeast; assay: MIC of CFW in the presence of compounds, checkerboard assay; type: cell-based, S. cerevisiae
Description: as §2

[7] = tested on: budding yeast S. cerevisiae; assay: Growth inhibition, broth microdilution MIC; type: cell-based
Description: The experiments were carried out using a broth microdilution protocol modified from the Clinical and Laboratory Standards Institute M-27A methods. WT S. cerevisiae and C. albicans were grown to mid-log phase in YPD medium. The cells were collected by centrifugation at 1500 g for 5 min and diluted with RPMI 1640 medium to the density of 1 × 10^4 CFU/mL. Then, the samples with various concentrations of compounds were dispensed at 0.2 mL/well in sterile 96-well microplates. The final concentrations of compounds ranged from 3.125 to 100 μg/mL with serial two-fold dilution. After incubation at 30 °C (S. cerevisiae) or 35 °C (C. albicans) for 24 hours, the minimal inhibitory concentration (MIC) was determined by measuring the optical density of the wells with cell cultures. The antifungal agent caspofungin was used as a positive control. All tests were performed in triplicate.

[8] = molecular target: Chs2 (Saccharomyces cerevisiae, UniProt P14180); assay: Chitin synthase activity assay (WGA-coated plate); type: biochemical, S. cerevisiae; conditions: membrane protein from WT yeast
Sequence of Chs2 (P14180 whole entry): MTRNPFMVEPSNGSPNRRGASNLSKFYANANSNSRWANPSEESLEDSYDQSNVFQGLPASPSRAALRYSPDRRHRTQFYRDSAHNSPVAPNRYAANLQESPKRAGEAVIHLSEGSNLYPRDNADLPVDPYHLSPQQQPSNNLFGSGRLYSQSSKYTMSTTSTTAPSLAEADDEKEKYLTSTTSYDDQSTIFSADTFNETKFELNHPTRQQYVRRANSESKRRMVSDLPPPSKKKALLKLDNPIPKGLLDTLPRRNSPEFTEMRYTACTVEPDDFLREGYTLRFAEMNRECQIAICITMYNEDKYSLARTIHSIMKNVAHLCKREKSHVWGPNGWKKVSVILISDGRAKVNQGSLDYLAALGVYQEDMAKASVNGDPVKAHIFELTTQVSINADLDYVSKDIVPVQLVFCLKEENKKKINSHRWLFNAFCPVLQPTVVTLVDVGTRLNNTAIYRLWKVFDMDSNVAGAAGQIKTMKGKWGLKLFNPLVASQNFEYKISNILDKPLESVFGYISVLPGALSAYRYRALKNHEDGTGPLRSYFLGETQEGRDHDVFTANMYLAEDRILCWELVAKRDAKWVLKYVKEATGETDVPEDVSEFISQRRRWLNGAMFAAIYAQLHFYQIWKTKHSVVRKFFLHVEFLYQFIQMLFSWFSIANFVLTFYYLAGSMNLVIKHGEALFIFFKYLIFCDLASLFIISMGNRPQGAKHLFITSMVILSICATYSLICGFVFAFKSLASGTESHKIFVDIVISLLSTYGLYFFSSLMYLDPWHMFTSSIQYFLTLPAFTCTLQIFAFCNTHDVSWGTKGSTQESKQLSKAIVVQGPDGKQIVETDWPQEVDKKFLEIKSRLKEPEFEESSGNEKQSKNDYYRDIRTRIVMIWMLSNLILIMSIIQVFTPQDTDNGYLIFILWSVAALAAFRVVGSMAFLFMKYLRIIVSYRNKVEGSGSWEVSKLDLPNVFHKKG
Description: The inhibitory effect of compounds IMB-D10 and IMB-F4, on the activity of chitin synthases 1, 2, and 3, was measured by the procedure, described previously. In brief, WT yeast cells were grown in YPD medium to OD600 1–2. The cells were sedimented at 1500 g for 15 min at 4 °C and washed once with water. Then, the cells were resuspended in cold 100 mM Tris-HCl (pH 7.5) buffer containing protease inhibitors, and broken by 10 cycles of vortexing with acid-washed glass beads (1 min each). The broken cells were centrifuged for 15 min at 1500g to eliminate cell wall and debris. One volume of supernatant was placed on 2 volumes of 10% w/w sucrose in 100 mM Tris-HCl pH 7.5 and centrifuged at 55,000 g for 2 hours. The pellet was resuspended in 50 mM Tris-HCl pH 7 and used as membrane protein of Chs3. For Chs1 and Chs2, the membrane protein was pretreated with 80 μg/mL trypsin for 30 min at 30 °C.
To assess the enzyme activity of Chs1, the assay mixture contained 15 μg membrane protein, 5 mM MgCl2, 32 mM Tris-maleate (pH6.5), 0.2% digitonin, 40 mM N-acetyl-glucosamine (GlcNAc), and 4 mM UDP-GlcNAc. For Chs2, the mixture contained 15 μg pretreated membrane protein, 1.6 mM CoCl2, 32 mM Tris-HCl (pH 8), 40 mM GlcNAc, and 4 mM UDP-GlcNAc. For Chs3, the mixture contained pretreated membrane protein 15 μg, 1.6 mM CoCl2, 5 mM NiCl2, 32 mM Tris-HCl (pH 8), 40 mM GlcNAc, and 4 mM UDP-GlcNAc. Different concentrations of IMB-D10 and IMB-F4 were added to the mixture, and the reaction without UDP-GlcNAc was used to measure background absorbance. The 96-well plate coated with 50 μg/mL wheat germ agglutinin (WGA) was washed three times with water, and the reaction mixture was added into the wells and incubated at 30 °C for 60 min. The reaction was stopped by 50 mM EDTA, and the plate was emptied and washed with a large volume of water, followed by the addition of 200 μL 0.5 μg/mL WGA-HRP and incubation for 5 min at room temperature. The plate was washed 5 times with running distilled water. Then, the Tetramethylbenzidine (TMB) reagent was added, and the optical density at 600 nm (OD600) was immediately detected with Multilabel Reader (Envision, PE, Pontyclun, UK). All reactions were performed in triplicate.

Molecule	MIC ([1]; Saccharomyces cerevisiae, 24 h, read-out: MIC, fks1∆) [µg/mL]	resistance of C. albicans to CFW ([2]; 25 and 50 μg/mL IMB-F4)	MIC ([3]; ATCC10231, compound alone, MIC80, read-out: MIC Alone) [µg/mL]	MIC of Caspofungin Combination ([3]; MIC80) [µg/mL]	MIC Combination ([3]; MIC80) [µg/mL]	FICI ([3]; fractional inhibitory concentration index with caspofungin, ≤0.5 synergistic)	MIC of Caspofungin Combination [4] [µg/mL]	MIC Combination [4] [µg/mL]	MIC ([4]; Saccharomyces cerevisiae, compound alone, read-out: MIC Alone) [µg/mL]	MIC ([5]; Saccharomyces cerevisiae, 24 h, read-out: MIC, chs3∆, chs3∆ mutant, YPD, 30 °C, 24 hours, MIC90) [µg/mL]	resistance to CFW ([6]; yeast cells treated with 25 and 50 μg/mL IMB-F4)	cell growth inhibition ([7]; S. cerevisiae, at 100 μg/mL)	MIC, fks1∆ ([1]; fks1∆ mutant, YPD, 30 °C, 24 hours, MIC90) [µg/mL]	MIC of CFW in the presence of IMB-D10 ([2]; C. albicans, IMB-D10 at 50 μg/mL) [µg/mL]	MIC Alone ([3]; compound alone, MIC80) [µg/mL]	MIC Alone ([4]; compound alone) [µg/mL]	MIC, chs3∆ ([5]; chs3∆ mutant, YPD, 30 °C, 24 hours, MIC90) [µg/mL]	IC50 Chs2 [8] [µg/mL]	increase of the MIC of CFW ([6]; budding yeast, presence of 12.5 μg/mL IMB-D10)	MIC ([7]; budding yeast S. cerevisiae) [µg/mL]
COc1cc(OC)cc(C(=O)N(CCn2ccnc2)c2nc3ccc(OC)cc3s2)c1 [IMB-F4, N-(2-(1H-imidazol-1-yl)ethyl)-3,5-dimethoxy-N-(6-methoxybenzo[d]thiazol-2-yl)benzamide]	50	increased the resistance	> 100	0.003125	12.5	<0.5	0.0075	25	> 100	> 100	increased resistance to CFW	did not inhibit cell growth	–	–	–	–	–	–	–	–
N-(2-(diethylamino) ethyl)-N-(7-hydroxy-4-methoxybenzo[d]thiazol -2-yl)-2-oxo-2H-chromene-3-carboxamide [IMB-D10]	–	–	–	0.00625	12.5	–	0.0075	12.5	–	–	–	–	25	100	100	50	100	3.516 ± 1.35	eight-fold increase	50
